In US20020062499A1, “Methods for translational repression of gene expression in plants” (priority 2000, published 2002):

Legend:
[1] = tested on: aroA:CP4 EPSPS reporter gene expression; assay: MS2 CP translational repression of CP4 EPSPS reporter, corn protoplast transient assay (ELISA); assay type: cell-based; conditions: corn protoplasts
Method: Corn protoplasts are prepared from etiolated leaves of antiseptically grown seedlings. Six to eight grams of leaf tissue is harvested and put in the enzyme mix (1% cellulase, 0.1% macerozyme, 0.6 M mannitol, 10 mM MES (pH =5.7), 1 mM CaCl2, 1 mM MgCl2, and 0. 1% BSA) in 100×25 mm petri plates. The leaf digestion is done for 135 minutes, swirling on a shaker at 50 rpm at 26° C. under light (10-25 mico-einsteins) in a growth chamber (Percival Scientific Inc., Boone, Iowa). Protoplasts are screened through a 190 μm sterile tissue mesh into a petri plate. The protoplasts are spun down in a table top centrifuge at 800 rpm (˜200 g) for 8 minutes. The supernatant is removed carefully by pipetting. The protoplasts are resuspended in 10 mL per tube of the 0.6 M mannitol rinse. They are spun down a second time using the same conditions and re-suspended in 10 mL of the electroporation buffer (0.6 M mannitol, 4 mM MES, 1.0 mM β-mercaptoethanol, 25 mM KCL, pH =5.7) and put on ice. The number of protoplasts is determined by making counts on a hemacytometer and a final density of 4.5×10^6 per mL is obtained with the proper volume of electroporation buffer. For electroporation, 0.75 mL of protoplasts is added to each cuvette followed by the addition of plasmid DNA in a volume of 50 μL or less. Samples are electroporated at 125 […] and 260 volts using a Bio-Rad Gene Pulser Electroporater (Bio-Rad CA) and incubated in Murishige-Skoog medium (MS) +0.6 M mannitol in the light at 26° C. for 18-22 hours before analysis. Protoplasts are harvested by spinning down at 800-1000 rpm in a table top centrifuge and lysed by resuspending in 500 μL extraction buffer (IX phosphate buffered saline [PBS] (Roche Boehringer Mannheim #1666789, Nutley, N.J.) 0.2% BSA, 0.5% Tween 20, pH 7.4) and vortexed for five seconds. Samples are spun at 3,000 rpm for 5 min in a table top centrifuge and the supernatant is saved to a fresh tube and put on ice ready for analysis.
The total amount of DNA in each sample is equalized by using as a carrier an appropriate amount of an empty vector plasmid DNA pMON999 (P-CaMV.35S/T-AGRTU.nos). With the aroA:CP4 EPSPS gene as the reporter, the GUS activity encoded by a separate plasmid is used as an internal control to normalize the expression. Similarly, the aroA:CP4 EPSPS gene expression is used for normalization when the Ec.uidA (GUS) gene is used as the reporter.
The aroA:CP4 EPSPS expression is quantitated by ELISA. A crude protoplast extract containing lmg total protein is added to goat anti-CP4 EPSPS IgG coated wells of a 96-well microtiter plate for immunoreaction. Antibodies specific to CP4 EPSPS are produced in goats by immunization of three goats with recombinant SDS-PAGE purified CP4 EPSPS from recombinant E. coli. […]

GUS expression = assay: MS2 translation repression system in transgenic Arabidopsis (F1 segregants of crosses); assay type: in vivo; conditions: Arabidopsis plants containing the MS2 coat protein
Method: Arabidopsis plants are transformed by the Agrobacterium infiltration method as described (Bechtold et al., Methods Mol. Biol. 82:259-66 (1992)). DNA gel blots (Southern blot analysis), RNA gel blots (northern blot analysis) and protein immunoblots (western blot analysis) are carried out using standard protocols (Sambrook et al., Molecular Cloning: A laboratory manual, 2nd ed. Cold Spring Harbor Laboratory Press, Cold Spring Harbor, N.Y., (1989)).
V1 plants positive for GUS and MS2 coat protein are identified using a GUS assay (Jefferson et al., Plant Mol. Bio. Rep. 5:387-405 (1987)) and western blot analysis, respectively. Positive plants with a low copy number are identified by Southern analysis then cross pollinated. F1 plants from the cross are then subjected to PCR analysis to identify segregants that contained both transgenes as well as siblings that contained only the uidA gene. GUS expression levels are determined by MUG assays (Jefferson et al., Plant Mol. Bio. Rep. 5:387-405, (1987)) in both groups of plants for three separate crosses (25×1, 25×12, and 14×23).

[2] = tested on: CP4 EPSPS reporter gene expression; assay: Yeast RPL32 translational repression of CP4 EPSPS reporter in corn protoplasts; assay type: cell-based; conditions: CP4 EPSPS reporter with RPL32 operator
Method: (§1) Corn protoplasts are prepared from etiolated leaves of antiseptically grown seedlings. Six to eight grams of leaf tissue is harvested and put in the enzyme mix (1% cellulase, 0.1% macerozyme, 0.6 M mannitol, 10 mM MES (pH =5.7), 1 mM CaCl2, 1 mM MgCl2, and 0. 1% BSA) in 100×25 mm petri plates. The leaf digestion is done for 135 minutes, swirling on a shaker at 50 rpm at 26° C. under light (10-25 mico-einsteins) in a growth chamber (Percival Scientific Inc., Boone, Iowa). Protoplasts are screened through a 190 μm sterile tissue mesh into a petri plate. The protoplasts are spun down in a table top centrifuge at 800 rpm (˜200 g) for 8 minutes. The supernatant is removed carefully by pipetting. The protoplasts are resuspended in 10 mL per tube of the 0.6 M mannitol rinse. […] The number of protoplasts is determined by making counts on a hemacytometer and a final density of 4.5×10^6 per mL is obtained with the proper volume of electroporation buffer. […] Samples are spun at 3,000 rpm for 5 min in a table top centrifuge and the supernatant is saved to a fresh tube and put on ice ready for analysis.
For CP4 EPSPS ELISA assay, a 96-well Nunc-Immuno MaxiSorb plate is coated with 100 μL of purified monoclonal anti-CP4 EPSPS IgG antibody (1 ng/μL) in coating buffer (15 mM Na2CO3, 35 mM NaHCO3, pH 9.6). […] The plate is read on a Spectra Max 340 (Molecular Devices, Sunnyvail, Calif. 94089) at 450 nm. […]

[3] = tested on: Ec.uidA reporter gene with the MS2 operator in the 5′UTR; assay: MS2 CP translational repression of Ec.uidA (GUS) reporter, corn protoplast transient assay; assay type: cell-based; conditions: pMON42178/pMON42176 and pMON42180/pMON42177; corn protoplasts
Method: as §1, with “analysis. […]” for “analysis.”
A fluorometry assay for GUS activity is performed as described (Jefferson, Plant Mol. Bio. Rep. 5:387-405 (1987)). GUS activity is measured with the fluorometric substrate 4-methylumbelliferryl-β-glucuronide (4-MUG) on a Fmax fluorimeter (Molecular Devices Corp., Sunnyvale, Calif.). […]

[4] = 4:1 DNA molar ratio of the coat protein gene to the reporter
[5] = MS2 coat protein gene co-expressed

In the case of “MS2 coat protein: coat protein of the MS2 RNA bacteriophage, RNA-binding translational repressor”, the “expression of the aroA:CP4 EPSPS reporter gene, % of the control” value [1, 4] is reported as 0.4%, the “fold repression of aroA:CP4 EPSPS reporter” value [1, 4] is reported as 270 fold and the “expression of the aroA:CP4 EPSPS reporter gene, % of the control” value [1, 5] is reported as 14%. The “fold repression of aroA:CP4 EPSPS reporter” value [1, 5] was “about 7 fold”, the “GUS activity, % of the control” value (GUS expression) was 6.9% and the “fold repression of GUS activity” value (GUS expression) was 14 fold.

With “RPL32: yeast (Saccharomyces cerevisiae) ribosomal protein RPL32, an RNA-binding protein” the “fold reduction of translation” value [2] was “up to 2.3 fold” and the “translation, % of the control” value [2] was no less than 43%.

B1: MS2 CP:en: plant expression enhanced version of the MS2 CP gene (SEQ ID NO:3) (nucleic acid)
DNA: ATGGCCTCCAACTTCACCCAGTTCGTGCTCGTGGACAACGGCGGCACCGGCGACGTGACCGTCGCCCCAAGCAACTTCGCCAACGGGGTCGCCGAGTGGATCAGCTCCAACTCGCGCTCCCAGGCCTACAAGGTGACCTGCAGCGTGCGCCAGTCCTCCGCGCAGAACCGCAAGTACACCATCAAGGTCGAGGTGCCGAAGGTGGCCACCCAGACCGTCGGCGGCGTGGAGCTGCCAGTGGCCGCCTGGCGCTCGTACCTCAACATGGAGCTGACCATCCCAATCTTCGCCACGAACTCCGACTGCGAGCTGATCGTGAAGGCCATGCAAGGCCTCCTGAAGGACGGCAACCCGATCCCCTCCGCCATCGCCGCCAACTCCGGCATCTACTAA
modifications: synthetic plant MS2 CP gene
With B1 the “increase in efficiency of translational repression compared to the respective native gene construct, expressed as decrease in GUS activity” value [3] was 74-80%.
